This note sets out measurements from ChEMBL document CHEMBL1201862, “PubChem BioAssay data set” (2004).

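Each compound was tested at five concentrations against cells in 96-well plates for 48 hours. GI50 marks 50% less growth.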 Calls of active or inactive are those of the source. Rule as the data show it: active = GI50 up to about 1.1 µM and inactive = higher. Where only a bound is given, the exact number is not on record here.

Among the test systems are HL-60; A549; RPMI-8226; OVCAR-3; HCC 2998; SK-MEL-2; SW-620; CCRF-CEM; COLO 205; UACC-257; NCI-H522; HT-29; IGROV-1; SK-MEL-5; OVCAR-5; A498; LOX IMVI; HOP-62; SF-539; HOP-92.
Assay in all cases: inhibition of tumour cell growth, NCI panel, 48 h

With `S=c1nc(Nc2ccc(Br)cc2)c2c3c(sc2[nH]1)CN(N1CCc2c(sc4[nH]c(=S)nc(Nc5ccc(Br)cc5)c24)C1)CC3`, the GI50 in the assay on HL-60 was 17.6 µM (inactive); with A549, 23 µM (inactive); in the assay on RPMI-8226 it was 19.2 µM (inactive); in the assay on OVCAR-3 it was 25.1 µM (inactive); in the assay on HCC 2998, 23.1 µM (inactive); in the assay with SK-MEL-2, 14.9 µM (inactive). Moreover, the GI50 with SW-620 is 16.4 µM (inactive); in the assay on CCRF-CEM it was 23.9 µM (inactive); in the assay on COLO 205, 23.6 µM (inactive); in the assay with UACC-257, 28.6 µM (inactive); with NCI-H522, 12.8 µM (inactive); in the assay with HT-29 it was 15.5 µM (inactive). Further, the GI50 in the assay on IGROV-1 was 26.2 µM (inactive); in the assay with SK-MEL-5, 12 µM (inactive); in the assay with OVCAR-5 it was 16 µM (inactive); in the assay with A498, 11.3 µM (inactive); with LOX IMVI it was 8.67 µM (inactive); in the assay with HOP-62, 17.5 µM (inactive). For the same molecule, the GI50 in the assay with SF-539 is 29.3 µM (inactive).

With `CCCO[C@@H]1[C@@H](OC(C)=O)[C@@H](OC(C)=O)C(C)(C)/C=C/[C@H](C)C(=O)[C@@]2(OC(C)=O)C[C@@](C)(OC(C)=O)[C@H](OC(C)=O)[C@@H]2[C@H]2OC(=O)CC[C@@]12OC(=O)c1ccccc1`, the GI50 is 2.64 µM (inactive) in the assay with HL-60; > 25 µM (inactive) in the assay with OVCAR-3; 18.5 µM (inactive) with HCC 2998; > 25 µM (inactive) in the assay on HOP-92; > 25 µM (inactive) with SK-MEL-2; 23.6 µM (inactive) in the assay with SW-620. In addition, the GI50 with CCRF-CEM was 4.85 µM (inactive); with COLO 205, 6.97 µM (inactive); with UACC-257, > 25 µM (inactive); with NCI-H522, 0.774 µM (active); in the assay with HT-29, 5.18 µM (inactive); with IGROV-1 it was > 25 µM (inactive). Also, the GI50 is 19.1 µM (inactive) in the assay on SK-MEL-5; > 25 µM (inactive) with OVCAR-5; > 25 µM (inactive) in the assay on LOX IMVI; > 25 µM (inactive) in the assay on HOP-62; > 25 µM (inactive) with SF-539.

On to `CN(C)c1ccc(/C=N/c2ccc(Oc3ccc(Cl)cc3)c(Cl)c2)cc1`, for which the GI50 with HL-60 was 11.7 µM (inactive); in the assay with A549, 18.7 µM (inactive); in the assay on RPMI-8226 it was 11.4 µM (inactive); with OVCAR-3, 12.9 µM (inactive); in the assay on HCC 2998, 17.7 µM (inactive); in the assay with HOP-92 it was 18.2 µM (inactive). Besides, the GI50 in the assay with SK-MEL-2 is 14.5 µM (inactive); with SW-620 it was 30.3 µM (inactive); in the assay on CCRF-CEM, 10.8 µM (inactive); in the assay on COLO 205, 22.1 µM (inactive); in the assay with UACC-257, 19.8 µM (inactive); with NCI-H522, 13.8 µM (inactive). Also, the GI50 in the assay with HT-29 was 16.1 µM (inactive); in the assay with IGROV-1, 21.7 µM (inactive); in the assay with SK-MEL-5, 15 µM (inactive); with OVCAR-5, 28.3 µM (inactive); in the assay on LOX IMVI, 17.9 µM (inactive); in the assay on HOP-62, 18.7 µM (inactive). Besides, the GI50 in the assay on SF-539 is 16.9 µM (inactive).

`OCc1nnn2c1CCC2`: the GI50 in the assay with HL-60, in the assay with A549, with OVCAR-3, in the assay on HCC 2998, with HOP-92 and in the assay on SK-MEL-2 was > 100 µM (inactive) throughout. In addition, the GI50 in the assay with SW-620, in the assay with CCRF-CEM, in the assay with UACC-257, in the assay on NCI-H522, in the assay on HT-29 and with IGROV-1 was > 100 µM (inactive) each time. The GI50 in the assay on SK-MEL-5, in the assay with OVCAR-5, with LOX IMVI, with HOP-62 and in the assay on SF-539 was > 100 µM (inactive) each time.
